In US9234006B2, “Compounds” (Novacta Biosystems Limited, priority 2011, dated 2016):
Structures can show the parent of a compound that is named as a salt. Where a SMILES comes first, the peptide text is derived from it. Bridges are numbered along the chain shown (N, C = ends). [ ]: non-standard residue; d: D form. The star is where a group is joined. ξ: configuration not given here. Thr(3ξ) = CC(O)[C@H](N)C(=O)O; Dab = NCC[C@H](N)C(=O)O; X4 = CN(C)CCCC(=O)*; X6 = O=C(CCCCCCCO)*; Ahx = NCCCCCC(=O)O; X3 = O=C(C1CCNC1)*

Experiments:
Test in all cases: MIC susceptibility testing, broth microdilution in CaMHB
E. coli NCTC9001 = type: cell-based, Escherichia coli; details: Table 4
Method: (§1) To evaluate the potency and spectrum of the compounds, susceptibility testing was performed against four strains of each of the four Gram negative pathogens, Escherichia coli, Pseudomonas aeruginosa, Klebsiella pneumoniae and Acinetobacter baumannii.
(§2) The day before testing, 3 to 4 colonies were picked from fresh Mueller-Hinton Agar (MHA) plate and transferred into 10 mL of Cation adjusted MHB (CaMHB). Cultures were incubated at 37° C. 250 rpm for 18-20 hours before being diluted 100-fold in fresh CaMHB. The subcultures were grown further until the OD600 reached 0.2-0.3 corresponding to […]. The actively growing cultures were diluted 100-fold in fresh medium and used for the inoculum.
(§3) The assays were performed in duplicate.
(§4) Data was obtained under similar conditions to Table 4 except that different batches of cation-adjusted Muller-Hinton broth were used. The MIC values for these compounds are compared with those values obtained for Polymyxin B, Colistin Sulphate, CB-182,804 and NAB739 (as the TFA salt). CB-182,804 is a polymyxin decapeptide derivative with an aryl urea substituent at the N-terminus, which has been claimed to have lower toxicity than Polymyxin B (compound 5 in WO 2010/075416. See page 37). NAB739 has been described previously by Vaara et al.

E. coli NCTC12900 = type: cell-based, Escherichia coli
Method: as §1, §2, §3, §4

E. coli ATCC25922 = type: cell-based, Escherichia coli
Method: as §1, §2, §3, §4

A. baumannii ATCCBAA-747 = type: cell-based, Acinetobacter baumannii
Method: as §1, §2, §3, §4

A. baumannii NCTC13423 = type: cell-based, Acinetobacter baumannii
Method: as §1, §2, §3, §4

A. baumannii NCTC7844 = type: cell-based, Acinetobacter baumannii
Method: as §1, §2, §3, §4

P. aeruginosa ATCC27853 = type: cell-based, Pseudomonas aeruginosa
Method: as §1, §2, §3, §4

[1] = test system: P. aeruginosa ATCCCRM-9027; type: cell-based, Pseudomonas aeruginosa
Method: as §1, §2, §3, §4

[2] = test system: K. pneumoniae ATCCBAA-1706; type: cell-based, Klebsiella pneumoniae
Method: as §1, §2, §3, §4

K. pneumoniae ATCC 4352 = type: cell-based, Klebsiella pneumoniae
Method: as §1, §2, §3, §4

K. pneumoniae NCTC7427 = type: cell-based, Klebsiella pneumoniae
Method: as §1, §2, §3, §4

K. pneumoniae NCTC8172 = type: cell-based, Klebsiella pneumoniae
Method: as §1, §2, §3, §4

E. coli ATCC700928 = type: cell-based, Escherichia coli
Method: as §1, §2, §3, §4

P. aeruginosa ATCC10145 = type: cell-based, Pseudomonas aeruginosa
Method: as §1, §2, §3, §4

A. baumannii ATCC19606 = type: cell-based, Acinetobacter baumannii
Method: as §1, §2, §3, §4

P. aeruginosa ATCC 9721 = type: cell-based, Pseudomonas aeruginosa; details: P. aeruginosa ATCC 9721; Table 4
Method: as §1, §2, §3, §4

[3] = P. aeruginosa ATCCCRM-9027, Table 4
[4] = K. pneumoniae ATCC 4352, Table 4
[5] = Table 4A, different batches of cation-adjusted Muller-Hinton broth

Row | SMILES | MIC (E. coli NCTC9001) [micrograms/mL] | MIC (E. coli NCTC12900; Table 4) [micrograms/mL] | MIC (E. coli ATCC25922; Table 4) [micrograms/mL] | MIC (A. baumannii ATCCBAA-747; Table 4) [micrograms/mL] | MIC (A. baumannii NCTC13423; Table 4) [micrograms/mL] | MIC (A. baumannii NCTC7844; Table 4) [micrograms/mL] | MIC (P. aeruginosa ATCC27853; Table 4) [micrograms/mL] | MIC [1, 3] [micrograms/mL] | MIC ([2]; Table 4) [micrograms/mL] | MIC (K. pneumoniae ATCC 4352; [4]) [micrograms/mL] | MIC (K. pneumoniae NCTC7427; Table 4) [micrograms/mL] | MIC (K. pneumoniae NCTC8172; Table 4) [micrograms/mL] | MIC (E. coli ATCC700928; Table 4) [micrograms/mL] | MIC (P. aeruginosa ATCC10145; Table 4) [micrograms/mL] | further results
1 | CC(C)C[C@@H]1NC(=O)[C@@H](Cc2ccccc2)NC(=O)[C@H](CCN)NC(=O)[C@@H](NC(=O)[C@H](CCN)NC(=O)[C@@H](NC(=O)CCCCCN)C(C)O)CCNC(=O)[C@H](C(C)O)NC(=O)[C@H](CCN)NC(=O)[C@H](CCN)NC1=O (stereo partly shown) [Example 7, 6-Aminohexanoyl Polymyxin B Nonapeptide, Sulphate Salt] (H-[Ahx][Thr(3ξ)][Dab][Dab][Dab][dF]L[Dab][Dab][Thr(3ξ)]; lactam 4-C) | 8 | 4 | 2 | 8 | 0.5 | 16 | 0.5 | 0.25 | 0.06 | 0.5 | 0.25 | >32 | – | – | –
2 | CC(C)C[C@@H]1NC(=O)[C@@H](Cc2ccccc2)NC(=O)[C@H](CCN)NC(=O)[C@@H](NC(=O)[C@H](CCN)NC(=O)[C@@H](NC(=O)CCCCCCCO)C(C)O)CCNC(=O)[C@H](C(C)O)NC(=O)[C@H](CCN)NC(=O)[C@H](CCN)NC1=O (stereo partly shown) [Example 8, 8-Hydroxyoctanoyl Polymyxin B Nonapeptide, Sulphate Salt] (X6-[Thr(3ξ)][Dab][Dab][Dab][dF]L[Dab][Dab][Thr(3ξ)]; lactam 3-C) | 2 | – | 2 | – | – | 16 | 0.5 | 0.25 | – | – | 1 | – | 0.5 | 2 | –
3 | CC(C)C[C@@H]1NC(=O)[C@@H](Cc2ccccc2)NC(=O)[C@H](CCN)NC(=O)[C@@H](NC(=O)[C@H](CCN)NC(=O)[C@@H](NC(=O)C2CCNC2)C(C)O)CCNC(=O)[C@H](C(C)O)NC(=O)[C@H](CCN)NC(=O)[C@H](CCN)NC1=O (stereo partly drawn) [Example 13, [3-(R,S)-Pyrrolidine-3-carbonyl] Polymyxin B Nonapeptide, Sulphate Salt] (X3-[Thr(3ξ)][Dab][Dab][Dab][dF]L[Dab][Dab][Thr(3ξ)]; lactam 3-C) | – | 2 | 0.5 | 4 | 2 | 4 | 0.25 | 2 | 1 | 0.5 | 0.25 | 4 | 0.25 | 0.5 | MIC (A. baumannii ATCC19606; Table 4): 0.5 micrograms/mL; MIC (P. aeruginosa ATCC 9721): 0.125 micrograms/mL
4 | CC(C)C[C@@H]1NC(=O)[C@@H](Cc2ccccc2)NC(=O)[C@H](CCN)NC(=O)[C@@H](NC(=O)[C@H](CCN)NC(=O)[C@@H](NC(=O)CCCN(C)C)C(C)O)CCNC(=O)[C@H](C(C)O)NC(=O)[C@H](CCN)NC(=O)[C@H](CCN)NC1=O (stereo partly shown) [Example 18, 4-(N,N-dimethylamino)-butanoyl polymyxin B nonapeptide] (X4-[Thr(3ξ)][Dab][Dab][Dab][dF]L[Dab][Dab][Thr(3ξ)]; lactam 3-C) | – | – | – | – | – | – | – | – | – | – | – | – | – | – | MIC (E. coli NCTC12900; [5]): 4 micrograms/mL; MIC (E. coli ATCC25922; [5]): 0.5 micrograms/mL; MIC (E. coli ATCC700928; [5]): 0.25 micrograms/mL; MIC (A. baumannii ATCCBAA-747; [5]): 16 micrograms/mL; MIC (A. baumannii NCTC13423; [5]): 4 micrograms/mL; MIC (A. baumannii NCTC7844; [5]): 8 micrograms/mL; MIC (A. baumannii ATCC19606; [5]): 1 micrograms/mL; MIC (P. aeruginosa ATCC27853; [5]): 0.125 micrograms/mL; MIC ([1]; P. aeruginosa AATCCRM 9027, Table 4A, different batches of cation-adjusted Muller-Hinton broth): 2 micrograms/mL; MIC (P. aeruginosa ATCC10145; [5]): 0.25 micrograms/mL; MIC [2, 5]: 8 micrograms/mL; MIC (K. pneumoniae ATCC 4352; K. pneumoniae ATCC4352, Table 4A, different batches of cation-adjusted Muller-Hinton broth): 0.5 micrograms/mL; MIC (K. pneumoniae NCTC7427; [5]): 0.125 micrograms/mL; MIC (K. pneumoniae NCTC8172; [5]): >32 micrograms/mL
